# System: subjects with major depressive disorder (MDD) who were inadequate responders to citalopram
# Test: SDS (Sheehan Disability Scale), Phase 2b add-on trial
# Type: in vivo, human
# Settings: for SDS Difference vs placebo / SDS Adj. Mean change: ITT; for SDS Difference vs placebo: Week 8 to Week 16 LOCF; for SDS Adj. Mean change: change from Week 8 (double-blind baseline) to Week 16 LOCF, add-on to citalopram
# From the text: The Sheehan Disability Scale (SDS) is widely used not only in psychiatry but also in many other chronic medical illnesses because of its generic design. It measures impairment in functioning. The scale generates 4 scores: a work disability score, a social life disability score, a family life disability score and a total score. A total score is generated through addition of the 3 individual scores (work: social life: family life). The maximum possible score is 30. In more detail, a multi-center double-blind, randomized, placebo-controlled, parallel group, flexible dose titration study of TC-5214 as adjunctive therapy in subjects with major depressive disorder (MDD) who were inadequate responders to citalopram was conducted in centers in the US and India. The study consisted of a screening period, baseline/washout period, open-label phase, double-blind phase, and a follow-up visit. Subject participation in the study could continue for up to 16 weeks of treatment. Following a washout period of up to 28 days for other antidepressants, subjects with MDD and a MADRS total score >/=28 and a Clinical Global Impression-Severity (CGI-S) score >/=4 were enrolled on Day 1 into an open-label citalopram-only phase of the study. This phase lasted 8 weeks, with citalopram (CIT) dose increased from a once-daily dose of 20 mg (Day 1 through Week 4) to 40 mg (Week 4 through Week 8). A total of 579 subjects entered the open-label citalopram phase. At Week 8, subjects who tolerated 40 mg CIT, but whose MADRS score was reduced <50% from baseline and no lower than 17, and CGI-S≧4, were considered inadequate responders. These subjects (n=270) were randomized in a double-blind fashion to receive either placebo or TC-5214-23 as add-on therapy to continued CIT. The double-blind phase of the study also lasted 8 weeks (Week 8 to Week 16). Study drug, TC-5214-23 or placebo, was started at 2 mg daily (1 mg twice per day [BID] dosing), added on to continuing CIT (40 mg PO qd). After 2 weeks of treatment, the dose of TC-5214 could be increased to 4 mg (2 mg BID) or continued unchanged, with up-titration based upon good tolerability and inadequate therapeutic response. After a further 2 weeks, the dose of TC-5214 could be increased again to 8 mg (4 mg BID) if judged appropriate by the investigator, based upon good tolerability and inadequate therapeutic response. At any time during the double-blind phase of the study, placebo or TC-5214-23 could be reduced to the previous dose level following the emergence of unacceptable adverse events (AEs). […] At this follow-up, any signs or symptoms of relapse were evaluated. If a subject was prematurely discontinued from the study between Week 8 and Week 16 for any reason, the investigator was to make every effort to perform all evaluations as per protocol, assuming the subject had reached the end of the double-blind add-on treatment phase. These evaluations were to be made as soon as possible and within 2 weeks of discontinuation. […] There was no meaningful difference in results as a function of age, gender, site, or smoking status. With regard to efficacy endpoints, the following tables present efficacy used in the ITT (Intent-to-Treat) and PP (Per Protocol) populations unless otherwise specific. The primary inference was based upon Week 16 visit using the ITT population. Change from baseline was obtained by subtracting the baseline values from the individual on-treatment values. Change from Week 16 was obtained by subtracting the Week 16 values from the individual follow-up visit (Week 18/19) values. If either the baseline or Week 16 or on-treatment or follow-up value was missing, the change from baseline or Week 16 value was also set to missing. To account for missing data, the last observation carry forward (LOCF) method was used for the ITT and PP populations. […]
# [1] = ITT Population, Double Blind Week 16 LOCF, change from Week 8 (double-blind baseline)
# [2] = ITT Population, Double Blind Week 18 LOCF (Follow-up)
# [3] = ITT and PP populations, result in words
# [4] = PP Population, Double Blind Week 16 LOCF, change from Week 8 (double-blind baseline)
# [5] = PP Population, Double Blind Week 18 LOCF (Follow-up)
smiles,measurement,setting,value
"CNC1(C)C2CCC(C2)C1(C)C (stereo in doubt) [TC-5214, (S)—N,2,3,3-tetramethylnorbornan-2-amine]",SDS change Adjusted Mean,[1],−9.18
same,SDS change Mean Difference between TC-5214 and Placebo,[1],4.60
same,SDS change Adjusted Mean,[2],−0.46
same,SDS change Mean Difference between TC-5214 and Placebo,[2],−0.23
same,SDS individual items (Work-School; Social Life; Life-Home Responsibilities) change from baseline compared with placebo,[3],statistically significant decreases (improvements)
same,SDS score change from baseline compared with placebo,[3],statistically significant decreases (improvements)
same,SDS Difference vs placebo,,"−4.49 (−5.96, −3.01)"
same,SDS Difference vs placebo,listed as TC-5214 + CIT,−4.49
same,SDS Adj. Mean change,,−9.18 (0.53)
same,SDS Adj. Mean change,listed as TC-5214 + CIT,−9.18
same,SDS change Adjusted Mean,[4],−10.21
same,SDS change Mean Difference between TC-5214 and Placebo,[4],4.86
same,SDS change Adjusted Mean,[5],−0.44
same,SDS change Mean Difference between TC-5214 and Placebo,[5],−0.20

# Source: US20120190752A1, “EXO-S-MECAMYLAMINE METHOD, USE, AND COMPOUND FOR TREATMENT” (Targacept Inc., priority 2009, published 2012)
